Measured values from patent publication US11548870B2, “Compounds useful as inhibitors of helios protein” (Bristol-Myers Squibb Company, priority 2019, dated 2023).

Columns and labels:
Helios = target: T1, Helios (Homo sapiens, UniProt Q96SW2+Q9UKS7); experiment: Helios Cellular Degradation Assay (flow cytometry, Helios-PE antibody staining, 72 h); assay type: cell-based; conditions: Jurkat cells, 72 h incubation, flow cytometry; for Dmax: Jurkat, read-out: Helios Dmax
T1 construct: fluorescently labelled antibodies against Helios and Ikaros; endogenous in cells; host or cells: Jurkat cells
In short: (§1)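 Jurkat cells (80,000/well, RPMI+10% FBS) were exposed to compound for 72 h at 37 °C, then fixed, permeabilized and co-stained for 1 h with Ikaros-Alexa488 and Helios-PE antibodies. Intracellular protein levels were read by flow cytometry.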

Ikaros = target: T2, Ikaros (Homo sapiens, UniProt Q13422); experiment: Helios Cellular Degradation Assay, Ikaros readout (flow cytometry, Ikaros-Alexa488 antibody staining, 72 h); assay type: cell-based; conditions: Jurkat cells, 72 h incubation, flow cytometry; for Dmax: Jurkat, read-out: Ikaros Dmax
T2 construct: fluorescently labelled antibodies against Helios and Ikaros; endogenous in cells; host or cells: Jurkat cells
In short: as §1

T1 sequence (Q9UKS7 whole entry): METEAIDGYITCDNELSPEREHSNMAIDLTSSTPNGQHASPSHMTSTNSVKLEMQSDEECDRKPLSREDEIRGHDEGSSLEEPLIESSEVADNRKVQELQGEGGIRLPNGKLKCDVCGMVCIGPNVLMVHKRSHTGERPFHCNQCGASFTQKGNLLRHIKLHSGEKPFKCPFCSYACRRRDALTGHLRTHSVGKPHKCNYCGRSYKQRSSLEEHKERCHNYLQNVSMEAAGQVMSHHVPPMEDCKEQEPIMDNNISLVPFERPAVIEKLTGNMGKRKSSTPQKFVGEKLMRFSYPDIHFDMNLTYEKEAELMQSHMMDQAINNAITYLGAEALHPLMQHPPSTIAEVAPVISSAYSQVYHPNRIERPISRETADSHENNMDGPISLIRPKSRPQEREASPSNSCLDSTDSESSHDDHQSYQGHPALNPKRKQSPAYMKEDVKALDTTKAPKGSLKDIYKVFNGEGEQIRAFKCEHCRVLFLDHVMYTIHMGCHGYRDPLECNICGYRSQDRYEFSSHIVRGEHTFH
T1 sequence (Q96SW2 whole entry): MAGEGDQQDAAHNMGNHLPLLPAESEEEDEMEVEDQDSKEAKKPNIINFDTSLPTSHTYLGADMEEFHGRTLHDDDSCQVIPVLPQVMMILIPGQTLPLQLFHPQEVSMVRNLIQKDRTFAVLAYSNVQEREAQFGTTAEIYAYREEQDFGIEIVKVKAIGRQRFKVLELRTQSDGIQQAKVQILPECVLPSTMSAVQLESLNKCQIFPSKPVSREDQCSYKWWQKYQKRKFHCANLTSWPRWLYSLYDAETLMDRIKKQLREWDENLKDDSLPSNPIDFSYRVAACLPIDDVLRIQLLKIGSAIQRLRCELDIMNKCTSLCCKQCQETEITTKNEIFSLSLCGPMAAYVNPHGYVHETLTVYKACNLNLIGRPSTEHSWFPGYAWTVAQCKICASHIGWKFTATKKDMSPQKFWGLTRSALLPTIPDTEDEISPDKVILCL
T1 sequence (Q16531 whole entry partner): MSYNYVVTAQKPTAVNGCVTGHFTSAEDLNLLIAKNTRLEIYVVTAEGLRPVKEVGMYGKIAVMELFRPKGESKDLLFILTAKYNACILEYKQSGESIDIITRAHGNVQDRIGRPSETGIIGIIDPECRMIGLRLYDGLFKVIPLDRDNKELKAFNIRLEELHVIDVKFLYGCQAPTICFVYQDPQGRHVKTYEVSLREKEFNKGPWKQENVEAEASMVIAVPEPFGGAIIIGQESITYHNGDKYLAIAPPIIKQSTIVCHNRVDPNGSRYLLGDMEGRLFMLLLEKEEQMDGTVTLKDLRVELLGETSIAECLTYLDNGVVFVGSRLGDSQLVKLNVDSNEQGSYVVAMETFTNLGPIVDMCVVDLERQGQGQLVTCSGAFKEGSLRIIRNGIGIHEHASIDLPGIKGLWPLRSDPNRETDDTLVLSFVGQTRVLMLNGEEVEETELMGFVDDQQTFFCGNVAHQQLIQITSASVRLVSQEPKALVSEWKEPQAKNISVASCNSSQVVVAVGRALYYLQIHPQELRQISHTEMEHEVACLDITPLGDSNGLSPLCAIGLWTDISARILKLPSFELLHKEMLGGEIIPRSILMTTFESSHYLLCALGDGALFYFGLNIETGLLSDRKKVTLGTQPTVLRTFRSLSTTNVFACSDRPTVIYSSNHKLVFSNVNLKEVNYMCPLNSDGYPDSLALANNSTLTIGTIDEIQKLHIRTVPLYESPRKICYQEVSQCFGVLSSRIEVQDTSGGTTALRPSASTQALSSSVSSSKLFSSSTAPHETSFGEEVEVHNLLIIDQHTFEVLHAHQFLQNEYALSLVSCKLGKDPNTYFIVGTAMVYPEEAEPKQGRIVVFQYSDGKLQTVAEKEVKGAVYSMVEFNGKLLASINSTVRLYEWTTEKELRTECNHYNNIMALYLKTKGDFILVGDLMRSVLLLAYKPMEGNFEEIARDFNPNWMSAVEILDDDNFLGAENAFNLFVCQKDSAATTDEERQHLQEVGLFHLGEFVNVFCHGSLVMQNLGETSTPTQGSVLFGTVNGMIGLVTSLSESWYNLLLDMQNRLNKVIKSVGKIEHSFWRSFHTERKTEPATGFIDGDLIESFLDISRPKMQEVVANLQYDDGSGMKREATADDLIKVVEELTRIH
T2 sequence (Q96SW2 whole entry partner): as the sequence (Q96SW2 whole entry) above
T2 sequence (Q16531 whole entry partner): as the sequence (Q16531 whole entry partner) above
T2 sequence (Q13422 whole entry): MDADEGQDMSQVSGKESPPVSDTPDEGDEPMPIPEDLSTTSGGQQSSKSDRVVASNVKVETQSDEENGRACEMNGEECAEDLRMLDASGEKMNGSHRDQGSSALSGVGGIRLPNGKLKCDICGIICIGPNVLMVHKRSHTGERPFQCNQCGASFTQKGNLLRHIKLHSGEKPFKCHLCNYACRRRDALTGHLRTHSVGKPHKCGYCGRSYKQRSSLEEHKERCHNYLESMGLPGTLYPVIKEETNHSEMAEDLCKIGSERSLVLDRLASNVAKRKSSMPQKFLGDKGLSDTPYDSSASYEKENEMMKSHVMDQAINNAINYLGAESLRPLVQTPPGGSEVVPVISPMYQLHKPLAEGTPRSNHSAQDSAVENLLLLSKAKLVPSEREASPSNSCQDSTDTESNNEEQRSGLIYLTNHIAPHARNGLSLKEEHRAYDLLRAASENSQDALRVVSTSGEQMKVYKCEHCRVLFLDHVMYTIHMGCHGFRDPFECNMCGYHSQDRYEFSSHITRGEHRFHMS

| DC50 (Helios) [nM] | Dmax (Helios) [%] | DC50 (Ikaros) [nM] | Dmax (Ikaros) [%] | Helios Dmax (Helios) [%] | Ikaros Dmax (Ikaros) [%] | Compound |
| --- | --- | --- | --- | --- | --- | --- |
| 55 | 70 | > 10000 | 7 |  |  | CC(C)(C)CNCc1ccnc(-c2ccc3c(c2)CN(C2CCC(=O)NC2=O)C3=O)c1 (centres unmarked) [Example 65, 3-(5-(4-((neopentylamino)methyl)pyridin-2-yl)-1-oxoisoindolin-2-yl)piperidine-2,6-dione] |
| > 10000 | 26 | > 10000 | 7 |  |  | O=C1CCC(N2Cc3cc(-c4cc(CNCC5CCCO5)ccn4)ccc3C2=O)C(=O)N1 (centres unmarked) [Example 66, 3-(1-oxo-5-(4-((((tetrahydrofuran-2-yl)methyl)amino)methyl)pyridin-2-yl)isoindolin-2-yl)piperidine-2,6-dione] |
| > 10000 | 41 | > 10000 | 6 |  |  | COc1ccc(CNCc2ccnc(-c3ccc4c(c3)CN(C3CCC(=O)NC3=O)C4=O)c2)cc1 (centres unmarked) [Example 67, 3-(5-(4-(((4-methoxybenzyl)amino)methyl)pyridin-2-yl)-1-oxoisoindolin-2-yl)piperidine-2,6-dione] |
| 192 | 71 | > 10000 | 15 |  |  | COCCNCc1ccnc(-c2ccc3c(c2)CN(C2CCC(=O)NC2=O)C3=O)c1 (centres unmarked) [Example 68, 3-(5-(4-(((2-methoxyethyl)amino)methyl)pyridin-2-yl)-1-oxoisoindolin-2-yl)piperidine-2,6-dione] |
| 783 | 57 | > 10000 | 0 |  |  | C[C@H]1CCCN1Cc1ccnc(-c2ccc3c(c2)CN(C2CCC(=O)NC2=O)C3=O)c1 (stereo partly drawn) [Example 69, 3-(5-(4-(((S)-2-methylpyrrolidin-1-yl)methyl)pyridin-2-yl)-1-oxoisoindolin-2-yl)piperidine-2,6-dione] |
| 19 | 79 | > 10000 | 10 |  |  | C[C@@H]1CCN(Cc2ccnc(-c3ccc4c(c3)CN(C3CCC(=O)NC3=O)C4=O)c2)C1 (stereo partly drawn) [Example 70, 3-(5-(4-(((R)-3-methylpyrrolidin-1-yl)methyl)pyridin-2-yl)-1-oxoisoindolin-2-yl)piperidine-2,6-dione] |
| > 10000 | 17 | > 10000 | 8 |  |  | C[C@@H]1CCCCN1Cc1ccnc(-c2ccc3c(c2)CN(C2CCC(=O)NC2=O)C3=O)c1 (stereo partly drawn) [Example 71, 3-(5-(4-(((R)-2-methylpiperidin-1-yl)methyl)pyridin-2-yl)-1-oxoisoindolin-2-yl)piperidine-2,6-dione] |
| 13 | 90 | > 10000 | 13 |  |  | C[C@H]1CCN(Cc2ccnc(-c3ccc4c(c3)CN(C3CCC(=O)NC3=O)C4=O)c2)C1 (stereo partly drawn) [Example 72, 3-(5-(4-(((S)-3-methylpyrrolidin-1-yl)methyl)pyridin-2-yl)-1-oxoisoindolin-2-yl) piperidine-2,6-dione] |
| 45 | 62 | > 10000 | 13 |  |  | C[C@H]1CCCN(Cc2ccnc(-c3ccc4c(c3)CN(C3CCC(=O)NC3=O)C4=O)c2)C1 (stereo partly drawn) [Example 73, 3-(5-(4-(((S)-3-methylpiperidin-1-yl)methyl)pyridin-2-yl)-1-oxoisoindolin-2-yl)piperidine-2,6-dione] |
| 2500 | 53 | > 10000 | 16 |  |  | C[C@H]1CCCCN1Cc1ccnc(-c2ccc3c(c2)CN(C2CCC(=O)NC2=O)C3=O)c1 (stereo partly drawn) [Example 74, 3-(5-(4-(((S)-2-methylpiperidin-1-yl)methyl)pyridin-2-yl)-1-oxoisoindolin-2-yl)piperidine-2,6-dione] |
| 14 | 94 | > 10000 | 10 |  |  | C[C@@H]1CCCN(Cc2ccnc(-c3ccc4c(c3)CN(C3CCC(=O)NC3=O)C4=O)c2)C1 (stereo partly drawn) [Example 75, 3-(5-(4-(((R)-3-methylpiperidin-1-yl)methyl)pyridin-2-yl)-1-oxoisoindolin-2-yl)piperidine-2,6-dione] |
| 6 | 98 | > 10000 | 12 |  |  | O=C1CCC(N2Cc3cc(-c4cc(CN5CCC5c5ccccc5)ccn4)ccc3C2=O)C(=O)N1 (centres unmarked) [Example 76, 3-(1-oxo-5-(4-((2-phenylazetidin-1-yl)methyl)pyridin-2-yl)isoindolin-2-yl) piperidine-2,6-dione] |
| 12 | 85 | > 10000 | 12 |  |  | O=C1CCC(N2Cc3cc(-c4cc(CNC5(C6CC6)CCC5)ccn4)ccc3C2=O)C(=O)N1 (centres unmarked) [Example 77, 3-(5-(4-(((1-cyclopropylcyclobutyl)amino)methyl)pyridin-2-yl)-1-oxoisoindolin-2-yl)piperidine-2,6-dione] |
| > 10000 | 49 | > 10000 | 0 |  |  | CN1C[C@@H]2CN(Cc3ccnc(-c4ccc5c(c4)CN(C4CCC(=O)NC4=O)C5=O)c3)C[C@@H]2C1 (stereo partly drawn) [Example 78, 3-(5-(4-(((3aR,6aS)-5-methylhexahydropyrrolo[3,4-c]pyrrol-2(1H)-yl)methyl)pyridin-2-yl)-1-oxoisoindolin-2-yl)piperidine-2,6-dione] |
| > 10000 | 26 | > 10000 | 8 |  |  | O=C1CCC(N2Cc3cc(-c4cc(CN5CC6CC5CO6)ccn4)ccc3C2=O)C(=O)N1 (centres unmarked) [Example 79, 3-(5-(4-((2-oxa-5-azabicyclo[2.2.1]heptan-5-yl)methyl)pyridin-2-yl)-1-oxoisoindolin-2-yl) piperidine-2,6-dione] |
| 35 |  | > 10000 |  | 99 | 12 | CC1CC(NCc2ccnc(-c3ccc4c(c3)CN(C3CCC(=O)NC3=O)C4=O)c2)CCO1 (centres unmarked) [Example 80, 3-(5-(4-(((2-methyltetrahydro-2H-pyran-4-yl)amino)methyl)pyridin-2-yl)-1-oxoisoindolin-2-yl)piperidine-2,6-dione] |
| 78 | 64 | > 10000 | 26 |  |  | C[C@@H]1C[C@H](C)CN(Cc2ccnc(-c3ccc4c(c3)CN(C3CCC(=O)NC3=O)C4=O)c2)C1 (stereo partly drawn) [Example 81, 3-(5-(4-(((3S,5R)-3,5-dimethylpiperidin-1-yl)methyl)pyridin-2-yl)-1-oxoisoindolin-2-yl)piperidine-2,6-dione] |
| 9 | 89 | > 10000 | 17 |  |  | CC1(C)CCN(Cc2ccnc(-c3ccc4c(c3)CN(C3CCC(=O)NC3=O)C4=O)c2)CC1 (centres unmarked) [Example 82, 3-(5-(4-((4,4-dimethylpiperidin-1-yl)methyl)pyridin-2-yl)-1-oxoisoindolin-2-yl)piperidine-2,6-dione] |
| 7 | 91 | > 10000 | 20 |  |  | O=C1CCC(N2Cc3cc(-c4cc(CN5CC(c6ccccc6)C5)ccn4)ccc3C2=O)C(=O)N1 (centres unmarked) [Example 83, 3-(1-oxo-5-(4-((3-phenylazetidin-1-yl)methyl)pyridin-2-yl)isoindolin-2-yl)piperidine-2,6-dione] |
| 40 | 69 | > 10000 | 4 |  |  | O=C1CCC(N2Cc3cc(-c4cc(CN[C@@H]5CCC[C@@H]5c5ccccc5)ccn4)ccc3C2=O)C(=O)N1 (stereo partly drawn) [Example 84, 3-(1-oxo-5-(4-((((1R,2R)-2-phenylcyclopentyl)amino)methyl)pyridin-2-yl)isoindolin-2-yl)piperidine-2,6-dione] |
